Literature values as cited in patent US10653742B2, “Anti-inflammatory use of liquid phytocomplexes from olive” (FATTORIA LA VIALLA DI GIANNI, ANTONIO E BANDINO LO …, priority 2013, dated 2020).

Conditions: also in high concentrations

OCCc1ccc(O)c(O)c1 [Hydroxytyrosol]
toxic effect on in vivo administration: no toxic effect
